Cytotoxicity data for 99 molecules are collected here from ChEMBL document CHEMBL3507680, “University of Dundee, Gates Library screen for HepG2 cell viability”.

A short description of this data set: Human HepG2 cell viability assay in 384 well format. The data set is classed as toxicity, cell-based. On the set-up: dose 125 nL, time 70.5 hour; concentration not given beside the values. To be noted: HepG2 cells, read-out: Inhibition.
As to `OC1(CNCCCN2CCCc3ccccc32)CNCCOC1` (centres undefined), the cytotoxicity at 70.5 h is -13%.

`CN(C)CC(=O)NC1CC(=O)N(CCc2ccccc2)C1` (centres undefined): the cytotoxicity at 70.5 h was -4.7%. Regarding `COCCn1cncc1CN1CCCC(C(=O)Cc2ccccc2)C1` (centres undefined), the cytotoxicity at 70.5 h stood at 0.198%. Next, `CC(C)(C)c1nc(CN(Cc2cccnc2)C2CN3CCC2CC3)no1` (centres undefined): -1.01%; `COCCN1C[C@H]2CC[C@@H]1CN(Cc1ccc3ccccc3n1)C2`: -5.95%.

On to `CN(Cc1ccccc1)c1cnn(CC2COCCO2)c(=O)c1` (centres undefined), for which the cytotoxicity at 70.5 h is -2.99%. Next, `O=C(O)C(c1ccc2c(c1)OCCO2)N1CCSCC1` (centres undefined): -3.24%. As for `CNc1nc(C)c(C(=O)N2CCCCC2CCc2ccc(O)cc2)s1` (centres undefined), the cytotoxicity at 70.5 h is -8.49%. The value for `CC(C)Oc1ccc2c(NC(=O)CNC(N)=O)nn(CC(F)(F)F)c2c1` was 3.1%; that for `COc1ccccc1OC1(C(=O)O)CCN(c2ccccn2)CC1` was 1.96%.

Consider `Cc1cccc2sc(NC(=O)CN3CCCC4(CC3)CNC(=O)O4)nc12` (centres undefined), for which the cytotoxicity at 70.5 h is -7.84%. For the molecule `CCn1c(C2CCCNC2)nn(CCn2cncn2)c1=O` (centres undefined), the cytotoxicity at 70.5 h is -8.3%. With `CCN(C)C[C@@H]1CN(Cc2cccc(Cl)c2)C[C@@H]1CO`, the cytotoxicity at 70.5 h is -11.5%. The value for `CC(C)c1nccc(C2(c3ccccc3Cl)CCNCC2)n1` was 10.5%; that for `CCn1c(C)nnc1SCCNC(=O)c1cnc(C(C)(C)C)nc1O` was 14.5%; that for `COCCn1cnnc1CNc1cc(C)nc2c(C)c(C)nn12` was -5.61%. Take `Cc1noc(C)c1C1CCCN1C(=O)c1cn2ccsc2n1` (centres undefined): the cytotoxicity at 70.5 h is -3.13%. The value for `CCCSc1nc(O)c(CC)c(=O)n1-c1ccccc1` was -6.46%; that for `CC[C@H]1COCCN1C(=O)c1cnc(-c2ccccc2)nc1C` was -5.37%; that for `Cc1cccc(C(=O)N2CC(=O)N(c3ccccc3Cl)CC2C)n1` (centres undefined) was 49.8%.

Turning to `c1cncc(NCCNC2CSCCSC2)c1`, the cytotoxicity at 70.5 h turned out to be 5.88%.

Take `O=c1c2ccccc2cnn1Cc1cncn1C1CC1`: the cytotoxicity at 70.5 h was -6.14%. Regarding `Cn1ccnc1SCCNc1ccnc(C(F)(F)F)n1`, the cytotoxicity at 70.5 h is -2.76%.

`Cc1nnc(CN(C)C2CCN(c3cccc(-c4cscn4)c3)CC2)o1`: the cytotoxicity at 70.5 h is -3.22%. `O=C1[C@@H]2CN(c3ncnc4sccc34)C[C@]2(C(=O)O)CN1CC1CC1`: the cytotoxicity at 70.5 h was -11.3%. The value for `Cc1nn(C)cc1-c1ccnc(N(C)Cc2cccs2)n1` was 2.52%; that for `CCC[C@H]1CN(S(C)(=O)=O)C[C@@H]1NC(=O)CCOCC` was -2.88%. As for `CN1CCCN(c2nc(C3CCCC3)nc3c2cnn3C)CC1`, the cytotoxicity at 70.5 h amounted to 14.5%.

On to `CC(Nc1nccc(CCC(F)(F)F)n1)c1nc(-c2ccncc2)no1` (centres undefined), for which the cytotoxicity at 70.5 h was -13.3%. As for `CN1C(=O)C2(CCCN(C(=O)c3ccc(=O)n(C)n3)C2)c2ccccc21` (centres undefined), the cytotoxicity at 70.5 h amounted to 0.808%. As for `CC(=O)N1CCCC(C(=O)N2Cc3nc(C)n(C)c(=O)c3C2)C1` (centres undefined), the cytotoxicity at 70.5 h is -3.08%. Next, `Cn1cc(CN2CCC[C@]3(C(=O)O)CN(c4cnccn4)CC[C@@H]23)cn1`: -2.41%. The value for `CN(Cc1cccc(-n2cccn2)c1)Cc1cccs1` was -11%; that for `COCc1c(C(=O)N2CCCC(C(=O)c3nccn3C)C2)noc1C` (centres undefined) was -1.47%; that for `CCc1nc(C)sc1CNC1CCN(Cc2ccccc2)C1` (centres undefined) was 8.22%.

`CC[C@H]1CN(C(=O)c2cnc(N3CCN(C)CC3)nc2C)CC[C@@]1(C)O`: the cytotoxicity at 70.5 h was -7.86%.

As for `COc1ccc(C(=O)C2CCCN(Cc3ccncc3)C2)cc1OC` (centres undefined), the cytotoxicity at 70.5 h is -3.65%. As for `Cc1nnsc1C(=O)N1CCN(CC2CC2)[C@@H]2CS(=O)(=O)C[C@@H]21`, the cytotoxicity at 70.5 h was -13.8%. As for `O=C(NC1CC1)C1CNCCN1C(=O)COc1ccc2c(c1)OCO2` (centres undefined), the cytotoxicity at 70.5 h is -5.08%. As to `CN(CCCc1cnn(C)c1)C(=O)C1CCN(C(=O)C2CCC2)CC1`, the cytotoxicity at 70.5 h is -10.7%. As to `CCC(CC)NCC(C)Oc1cccnc1` (centres undefined), the cytotoxicity at 70.5 h is -2.86%. `CN1CC=C(CCN(C)C(=O)CCc2ccccc2)CC1`: the cytotoxicity at 70.5 h was -6.34%. `Cc1cccc(SC2CCN(C(=O)CCCS(N)(=O)=O)CC2)c1`: the cytotoxicity at 70.5 h was -6.67%. In the case of `Cc1cncc(C(=O)N2CCN(c3cnn(C)c(=O)c3)CC2)c1`, the cytotoxicity at 70.5 h was -6.5%. Regarding `CC1=C(CCN2CCCC(O)C2)C(C)(C)CCC1` (centres undefined), the cytotoxicity at 70.5 h is 18.9%. Take `CSc1cccc(CN2CCn3nc(CNC(C)=O)cc3C2)c1`: the cytotoxicity at 70.5 h is 5.2%. Next, `COc1c(F)cc(F)cc1-c1nc2c([nH]1)CCNC2`: 14.9%. Consider `Cc1ccc2occ(CN3CCN(c4ncccn4)CC3)c(=O)c2c1`, for which the cytotoxicity at 70.5 h was 29.4%.

Regarding `N[C@@H]1CC[C@@H](NC(=O)c2ccccc2OC(F)(F)C(F)F)C1`, the cytotoxicity at 70.5 h was found to be 16%. Turning to `CC(C)=CCN1C[C@@H](C(=O)O)C[C@H](C(=O)Nc2ccc(C)nc2)C1`, the cytotoxicity at 70.5 h was -8.07%.

For `Cc1ccc(S(=O)(=O)N2C[C@H](C3CC3)[C@@H](N)C2)cc1F`, the cytotoxicity at 70.5 h is -3.15%.

Consider `O=C(CC1COCCN1)NCCc1noc(-c2ccccc2)n1` (centres undefined), for which the cytotoxicity at 70.5 h is -2.33%. With `Cc1cccc(C)c1NC(=O)NCC1CCCN(C2CCOCC2)C1` (centres undefined), the cytotoxicity at 70.5 h was -8.66%. The value for `CCc1nnc(N[C@H](C)c2cccc(OC)c2)o1` was -20.2%. As for `CCCc1nc(C(=O)N2CCN(S(=O)(=O)CC)CC2)cs1`, the cytotoxicity at 70.5 h was found to be 10.2%. For the molecule `O=C(COCc1ccccc1)N1CCCn2cncc2C1`, the cytotoxicity at 70.5 h was -4.83%.

On to `CCN1CCC(NN2CCN(C)CC2)CC1`, for which the cytotoxicity at 70.5 h is -4.47%. Next, `O=C(O)[C@@]12CN(c3cnccn3)C[C@@H]1CN(C1CCCC1)C2`: -7.64%; `COc1coc(CN2CCCC(CCc3ccccc3C)C2)cc1=O` (centres undefined): 2.52%. In the case of `CCOc1ccc(C(=O)N2Cc3cnc(CC)nc3C2)o1`, the cytotoxicity at 70.5 h is -3.48%.

For `CCCN1CCC(NN2CCN(C)CC2)CC1`, the cytotoxicity at 70.5 h is -6.76%. As for `CCCN1CCC(Nc2cc(-c3ccccc3)ccc2OC)CC1`, the cytotoxicity at 70.5 h turned out to be 0.639%. Turning to `CCc1nc(N2CCN(c3ncccc3C#N)CC2)c2cnn(C)c2n1`, the cytotoxicity at 70.5 h amounted to 22%.

Take `CNc1ncc(CN(C)c2nccc(CCC(F)(F)F)n2)cn1`: the cytotoxicity at 70.5 h is -2.35%. With `Cc1nc(CN(C)Cc2nc(-c3ccccc3)no2)co1`, the cytotoxicity at 70.5 h was -1.63%. The value for `CCn1c(CC2CCN(C(=O)C3CCOC3)CC2)nn(C)c1=O` (centres undefined) was 32.2%. For `COc1cc(F)ccc1C(C(=O)O)N(C)CCN1CCOCC1` (centres undefined), the cytotoxicity at 70.5 h is 15.1%. With `COc1ccccc1-n1cc(C(=O)NCCn2nc(C)nc2C)cn1`, the cytotoxicity at 70.5 h was -9.92%.

As to `CC(Cn1cncn1)NCc1n[nH]c2c1CCCCC2` (centres undefined), the cytotoxicity at 70.5 h is -10.2%.

As for `CN(C)C(C(=O)N1CCC(c2ncc[nH]2)CC1)c1ccc2c(c1)OCO2` (centres undefined), the cytotoxicity at 70.5 h is -5.4%. In the case of `COc1ccccc1N1CCN(C(=O)Cn2nc(C)cc2C)CC1(C)C`, the cytotoxicity at 70.5 h was -14.1%. Take `COc1ccc(F)c(CN2CCCC3(CCN(C4CCOCC4)C3)C2)c1` (centres undefined): the cytotoxicity at 70.5 h was -4.15%. For `O=C1CCC(C(=O)N(Cc2ccsc2)CC2CCCO2)=NN1` (centres undefined), the cytotoxicity at 70.5 h is -0.382%.

For `CC(C)Cc1noc(CN(C)C(=O)CCNC(=O)c2ccccc2F)n1`, the cytotoxicity at 70.5 h is -8.23%. The value for `Cc1csc(CNc2ccc(-c3nc(C4CC4)no3)cn2)n1` was -5.44%; that for `O=S(=O)(c1c(Cl)nc2sccn12)N1CCC2(CCNCC2)C1` was -6.41%. With `COCC[C@]1(O)CCN(CC(=O)NCc2ccccn2)C[C@H]1C`, the cytotoxicity at 70.5 h amounted to 5.51%. As to `C=Cc1cccc(CN2CCCn3nc(CNS(C)(=O)=O)cc3C2)c1`, the cytotoxicity at 70.5 h was -3.84%. Next, `O=C(Nc1ccc2c(c1)OCO2)N1CCN(CCc2ccccc2)CC1`: -6.84%. In the case of `c1cc2ccc(N3CCN(Cc4ccc5c(c4)OCO5)CC3)nc2[nH]1`, the cytotoxicity at 70.5 h is -4.53%. Next, `Cc1c(CN(C)c2cc(C3CCCNC3)ncn2)[nH]c2ccccc12` (centres undefined): -14.2%. For the molecule `CCC(C)N(Cc1cccnc1)C(=O)c1ccc(F)c(O)c1` (centres undefined), the cytotoxicity at 70.5 h came out at 12.9%. With `O=C(c1cn(CC(=O)N2CCCCCC2)c2ccccc12)C1CC1`, the cytotoxicity at 70.5 h is -7.67%. Regarding `CCC[C@@H]1CN(Cc2ccccc2SC)C[C@H]1NC(C)=O`, the cytotoxicity at 70.5 h was -5.44%. On to `COc1cccc(S(=O)(=O)N2CCCCC2CCN2CCOCC2)c1` (centres undefined), for which the cytotoxicity at 70.5 h was 24.6%.

With `CCN1CC2(CCN(C(=O)C(C)Oc3ccc(F)cc3Cl)CC2)CC1=O` (centres undefined), the cytotoxicity at 70.5 h was found to be 25%. Consider `CCCc1nc(N2CC[C@@H](c3ccc4ccccc4c3)[C@H](O)C2)no1`, for which the cytotoxicity at 70.5 h is -0.24%. Regarding `CCn1c(CC2CCN(C(=O)C3COCCO3)CC2)nn(C)c1=O` (centres undefined), the cytotoxicity at 70.5 h is 42.7%. `Cc1cnc(N2CC[C@@]3(O)CCCC[C@H]3C2)nc1-c1ccnn1C`: the cytotoxicity at 70.5 h was -7.52%. `O=C(c1ccc(S(=O)(=O)NC2CCC2)cc1)N1CC[C@H]2CNC[C@H]21`: the cytotoxicity at 70.5 h was -3.93%. In the case of `Cc1nnsc1C(=O)NCc1cccnc1N1CCCC(O)C1` (centres undefined), the cytotoxicity at 70.5 h was -15.1%. Consider `Cc1ccccc1CN(Cc1ccncc1)CC(C)C`, for which the cytotoxicity at 70.5 h is -4.55%. Next, `CC(C1CCN(Cc2ccc(N(C)C)nc2)CC1)N(C)C` (centres undefined): -2.39%; `COC1CCN(S(=O)(=O)N2CC[C@@](O)(C3CCC3)[C@H](C)C2)CC1`: -11.9%; `CC(C)[C@H]1CN(Cc2ccncc2)C[C@@H]1NC(=O)C1(C#N)CCOCC1`: -1.7%. `CNc1ccc(C(=O)N(C)Cc2ccc3ccccc3n2)cn1`: the cytotoxicity at 70.5 h is -8.44%. Next, `COCCN(C)Cc1cc(Cl)ccc1OCC(O)CN1CCCCCC1` (centres undefined): -11.6%; `Cc1cc(C)cc(CCC(=O)N(C)CCc2cn[nH]c2)c1`: -14.2%; `O=C(O)c1cccnc1CN1CCOc2ccccc2C1`: -9.48%.
